Measured values reported in US20230192705A1, “SHP2 INHIBITORS, COMPOSITIONS AND USES THEREOF” (Betta Pharmaceuticals Co., Ltd, priority 2020, published 2023).

Biological target: T1, SHP2 (Homo sapiens, UniProt Q06124)
T1 sequence (Q06124 1-593): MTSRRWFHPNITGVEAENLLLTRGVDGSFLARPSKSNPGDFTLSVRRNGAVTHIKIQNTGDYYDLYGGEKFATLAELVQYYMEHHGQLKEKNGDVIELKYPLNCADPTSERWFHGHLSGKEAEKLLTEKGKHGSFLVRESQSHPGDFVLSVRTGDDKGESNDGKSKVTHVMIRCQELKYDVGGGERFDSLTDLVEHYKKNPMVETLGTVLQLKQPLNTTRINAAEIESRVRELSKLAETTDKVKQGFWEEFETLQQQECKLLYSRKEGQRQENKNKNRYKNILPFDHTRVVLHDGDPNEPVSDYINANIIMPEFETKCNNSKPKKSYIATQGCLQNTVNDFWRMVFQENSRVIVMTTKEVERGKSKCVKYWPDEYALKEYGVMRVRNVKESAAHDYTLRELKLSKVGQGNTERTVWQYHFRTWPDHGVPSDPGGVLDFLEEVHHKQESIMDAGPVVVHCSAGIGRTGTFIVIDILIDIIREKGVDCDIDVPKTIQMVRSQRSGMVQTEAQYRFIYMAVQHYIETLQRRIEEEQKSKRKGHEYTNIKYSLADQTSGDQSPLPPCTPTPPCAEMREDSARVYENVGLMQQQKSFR
Test: SHP2 allosteric inhibitor enzyme activity assay (DiFMUP fluorescence)
Type: biochemical
Conditions: class symbols
Source text: SHP2 is activated by the binding of a bis-tyrosyl-phosphorylated peptide to its Src homologous 2 (SH2) domain. This subsequent activation step leads to the release of the automatic inhibition interface of SHP2, which in turn activates the SHP2 protein tyrosine phosphatase (PTP) and can be used for substrate recognition and reaction catalysis. The catalytic activity of SHP2 was monitored using the alternative DiFMUP in a rapid fluorescence assay format.
Assay procedures are as follows:
(1) Compound Formulation:
The compound of the present invention (10 mM stock solution) was diluted to a suitable multiple with 100% DMSO and assay buffer, and the final test concentration of the compound of the present invention was 1 μM, 0.333 μM, 0.111 μM, 0.0370 μM, 0.0124 μM, 0.00412 μM, 0.00137 μM, 0.00046 μM, 0.00015 μM, 0.00 μM;
(2) Preparation of Enzyme Reaction Working Fluid:
SHP2 enzyme activity was performed using a final reaction volume of 50 μL and the following assay buffer conditions in 96-well black polystyrene plates (flat bottom, low flange, non-bonding surface) (Perki Elmer, Cat #6005270) at room temperature: 60 mM HEPES, 75 mM NaCl, 75 mM KCl, 0.05% BRIJ-35, 1 mM EDTA, 5 mM DTT.
(3) Enzyme Catalytic Reaction and Data Monitoring:
Compounds of the present invention were added to the corresponding 96-well plates, and no compound and enzyme were provided as blank test wells. SHP2 Activating Peptide (IRS1_pY1172 (dPEG8)pY1222) was placed on ice for melting, and 0.5 μM was added per well, then 0.2 ng SHP2 protein samples were added to corresponding well plates, and incubated at room temperature for 1 hour. Substrate DiFMUP (Invitrogen, Cat #D6567) was added to the reaction at room temperature for 1 hour. Fluorescence signals were monitored using an enzyme reader (Envision, Perki Elmer) using excitation wavelengths and emission wavelengths of 340 nm and 450 nm, respectively.
Inhibition %=[1−(Conversion_sample−Conversion_min)/(Conversion_max−Conversion_min)]*100% Calculation formula: […]
where: Conversion_sample is the mean reading of the sample wells; Conversion_min is the mean reading of blank control wells, representing the reading of the wells without enzyme; Conversion_max is the mean of positive control wells, representing the reading of the wells without inhibitor.
The dose-response curve is fitted with GraphPad Prism software and IC50 was calculated by the “log[inhibitor] vs. response-variable slope” program.

Row | SMILES | IC50
1 | N[C@@H]1c2ccccc2CC12CCN(c1nc3[nH]nc(C4(c5cccc(Cl)c5Cl)CC4)c3c(=O)[nH]1)CC2 [Example 49, (S)-6-(1-amino-1,3-dihydrospiro[indene-2,4′-piperidin]-1′-yl)-3-(1-(2,3-dichlorophenyl)cyclopropyl)-1,5-dihydro-4H-pyrazolo[3,4-d]pyrimidin-4-one] | ≤ 20 nM
2 | COc1ccc(C2(c3n[nH]c4nc(N5CCC6(CC5)Cc5ccccc5[C@H]6N)[nH]c(=O)c34)CC2)c(OC)c1 [Example 232, (S)-6-(1-amino-1,3-dihydrospiro[indene-2,4′-piperidin]-1′-yl)-3-(1-(2,4-dimethoxyphenyl)cyclopropyl)-1,5-dihydro-4H-pyrazolo[3,4-d]pyrimidin-4-one] | ≤ 20 nM
3 | N[C@@H]1c2ccccc2CC12CCN(c1nc3[nH]nc(C4(c5cccc(C6CCOCC6)c5)CC4)c3c(=O)[nH]1)CC2 [Example 40, (S)-6-(1-amino-1,3-dihydrospiro[indene-2,4′-piperidin]-1′-yl)-3-(1-(3-(tetrahydro-2H-pyran-4-yl)phenyl)cyclopropyl)-1,5-dihydro-4H-pyrazolo[3,4-d]pyrimidin-4-one] | ≤ 20 nM
4 | Cn1c(N2CCC3(CC2)Cc2ccccc2[C@H]3N)nc2[nH]nc(C3(c4ccccc4)CCC3)c2c1=O [Example 91, (S)-6-(1-amino-1,3-dihydrospiro[indene-2,4′-piperidin]-1′-yl)-5-methyl-3-(1-phenylcyclobutyl)-1,5-dihydro-4H-pyrazolo[3,4-d]pyrimidin-4-one] | ≤ 20 nM
5 | N[C@@H]1c2ccccc2CC12CCN(c1nc3[nH]nc(C4(c5ccnc(Cl)c5)CC4)c3c(=O)[nH]1)CC2 [Example 25, (S)-6-(1-amino-1,3-dihydrospiro[indene-2,4′-piperidin]-1′-yl)-3-(1-(2-chloropyridin-4-yl)cyclopropyl)-1,5-dihydro-4H-pyrazolo[3,4-d]pyrimidin-4-one] | ≤ 20 nM
6 | N[C@@H]1c2ccccc2CC12CCN(c1nc3[nH]nc(C4=CCCc5ccccc54)c3c(=O)[nH]1)CC2 [Example 111, (S)-6-(1-amino-1,3-dihydrospiro[indene-2,4′-piperidin]-1′-yl)-3-(3,4-dihydronaphthalen-1-yl)-1,5-dihydro-4H-pyrazolo[3,4-d]pyrimidin-4-one] | ≤ 20 nM
7 | C[C@@H]1OCC2(CCN(c3nc4[nH]nc(C5(c6ccncn6)CC5)c4c(=O)[nH]3)CC2)[C@@H]1N [Example 273, 6-((3S,4S)-4-amino-3-methyl-2-oxa-8-azaspiro[4.5]decan-8-yl)-3-(1-(pyrimidin-4-yl)cyclopropyl)-1,5-dihydro-4H-pyrazolo[3,4-d]pyrimidin-4-one] | 20 to 60 nM
8 | N[C@@H]1c2ccccc2CC12CCN(c1nc3[nH]nc(C4(c5ccccc5)CCCCC4)c3c(=O)[nH]1)CC2 [Example 99, (S)-6-(1-amino-1,3-dihydrospiro[indene-2,4′-piperidin]-1′-yl)-3-(1-phenylcyclohexyl)-1,5-dihydro-4H-pyrazolo[3,4-d]pyrimidin-4-one] | 20 to 60 nM
9 | C[C@@H]1OCC2(CCN(c3nc4[nH]nc(C5(c6ccncc6)CC5)c4c(=O)[nH]3)CC2)[C@@H]1N [Example 274, 6-((3S,4S)-4-amino-3-methyl-2-oxa-8-azaspiro[4.5]decan-8-yl)-3-(1-(pyridin-4-yl)cyclopropyl)-1,5-dihydro-4H-pyrazolo[3,4-d]pyrimidin-4-one] | 20 to 60 nM
10 | CNc1ncc2c(n1)CC(C)(C)C=C2c1n[nH]c2nc(N3CCC4(CC3)Cc3ccccc3[C@H]4N)[nH]c(=O)c12 [Example 149, (S)-6-(1-amino-1,3-dihydrospiro[indene-2,4′-piperidin]-1′-yl)-3-(7,7-dimethyl-2-(methylamino)-7,8-dihydroquinazolin-5-yl)-1,5-dihydro-4H-pyrazolo[3,4-d]pyrimidin-4-one] | ≤ 20 nM
11 | Cn1ncc(-c2cccc(C3(c4n[nH]c5nc(N6CCC7(CC6)Cc6ccccc6[C@H]7N)[nH]c(=O)c45)CC3)c2)n1 [Example 37, (S)-6-(1-amino-1,3-dihydrospiro[indene-2,4′-piperidin]-1′-yl)-3-(1-(3-(2-methyl-2H-1,2,3-triazol-4-yl)phenyl)cyclopropyl)-1,5-dihydro-4H-pyrazolo[3,4-d]pyrimidin-4-one] | ≤ 20 nM
12 | N[C@@H]1c2ccccc2CC12CCN(c1nc3[nH]nc(C4=CS(=O)(=O)Cc5ccccc54)c3c(=O)[nH]1)CC2 [Example 182, (S)-6-(1-amino-1,3-dihydrospiro[indene-2,4′-piperidin]-1′-yl)-3-(2,2-dioxido-1H-isothiochromen-4-yl)-1,5-dihydro-4H-pyrazolo[3,4-d]pyrimidin-4-one] | ≤ 20 nM
13 | CC(=O)c1cccc(C2(c3n[nH]c4nc(N5CCC6(CC5)CO[C@H](C)[C@@H]6N)[nH]c(=O)c34)CC2)c1 [Example 316, 3-(1-(3-acetylphenyl)cyclopropyl)-6-((3R,4R)-4-amino-3-methyl-2-oxa-8-azaspiro[4.5]decan-8-yl)-1,5-dihydro-4H-pyrazolo[3,4-d]pyrimidin-4-one] | 20 to 60 nM
14 | C[C@@H]1OCC2(CCN(c3nc4[nH]nc(C5(c6ccc(N)cc6)CC5)c4c(=O)[nH]3)CC2)[C@@H]1N [Example 299, 6-((3S,4S)-4-amino-3-methyl-2-oxa-8-azaspiro[4.5]decan-8-yl)-3-(1-(4-aminophenyl)cyclopropyl)-1,5-dihydro-4H-pyrazolo[3,4-d]pyrimidin-4-one] | 20 to 60 nM
15 | C[C@@H]1OCC2(CCN(c3nc4[nH]nc(C5(c6ccccc6C(F)(F)F)CC5)c4c(=O)[nH]3)CC2)[C@@H]1N [Example 298, 6-((3S,4S)-4-amino-3-methyl-2-oxa-8-azaspiro[4.5]decan-8-yl)-3-(1-(2-(trifluoromethyl)phenyl)cyclopropyl)-1,5-dihydro-4H-pyrazolo[3,4-d]pyrimidin-4-one] | > 60 nM
16 | N[C@@H]1c2ccccc2CC12CCN(c1nc3[nH]nc(C4CCCCc5ccccc54)c3c(=O)[nH]1)CC2 (stereo partly drawn) [Example 110, 6-((S)-1-amino-1,3-dihydrospiro[indene-2,4′-piperidin]-1′-yl)-3-(6,7,8,9-tetrahydro-5H-benzo[7]annulen-5-yl)-1,5-dihydro-4H-pyrazolo[3,4-d]pyrimidin-4-one] | ≤ 20 nM
17 | CC1(C)C=C(c2n[nH]c3nc(N4CCC5(CC4)Cc4ccccc4[C@H]5N)[nH]c(=O)c23)c2cnc(C3CC3)nc2C1 [Example 148, (S)-6-(l-amino-1,3-dihydrospiro[indene-2,4'-piperidin]-1′-yl)-3-(2-cyclopropyl-7,7-dimethyl-7,8-dihydroquinazolin-5-yl)-1,5-dihydro-4H-pyrazolo[3,4-d]pyrimidin-4-one] | 20 to 60 nM
18 | N[C@@H]1c2ccccc2CC12CCN(c1nc3[nH]nc(C4(c5ccnc(OC6CC6)c5)CC4)c3c(=O)[nH]1)CC2 [Example 30, (S)-6-(1-amino-1,3-dihydrospiro[indene-2,4′-piperidin]-1′-yl)-3-(1-(2-cyclopropoxypyridin-4-yl)cyclopropyl)-1,5-dihydro-4H-pyrazolo[3,4-d]pyrimidin-4-one] | ≤ 20 nM
19 | C[C@@H]1OCC2(CCN(c3nc4[nH]nc(C5(c6cccc(-n7cccn7)c6)CC5)c4c(=O)[nH]3)CC2)[C@@H]1N [Example 314, 3-(1-(3-(1H-pyrazol-1-yl)phenyl)cyclopropyl)-6-((3S,4S)-4-amino-3-methyl-2-oxa-8-azaspiro[4.5]decan-8-yl)-1,5-dihydro-4H-pyrazolo[3,4-d]pyrimidin-4-one] | > 60 nM
20 | C[C@@H]1OCC2(CCN(c3nc4[nH]nc(C5(c6ccc(F)c(F)c6)CC5)c4c(=O)[nH]3)CC2)[C@@H]1N [Example 295, 6-((3S,4S)-4-amino-3-methyl-2-oxa-8-azaspiro[4.5]decan-8-yl)-3-(1-(3,4-difluorophenyl)cyclopropyl)-1,5-dihydro-4H-pyrazolo[3,4-d]pyrimidin-4-one] | 20 to 60 nM
